Data from patent US20240059695A1, “SUBSTITUTED IMIDAZO[1,5-b]PYRIDAZINE COMPOUNDS AS KINASE INHIBITORS AND USE THEREOF” (IMPACT THERAPEUTICS (SHANGHAI), INC, priority 2020, published 2024).
Read-outs that look alike come from different tables or passages of the source.

Legend:
ATR/ATRIP enzyme = biological target: T1, ATR/ATRIP enzyme (Homo sapiens, UniProt Q13535); assay: ATR enzyme activity experiment (HTRF); assay type: biochemical; settings: p53 substrate, 30 min room temperature, read-out: IC50 (nM), inhibitory effect on ATR kinase activity
T1 construct: purchased Eurofins 14-953
Method: The mixture was centrifuged at 1000 rpm for 1 minute, and reacted at room temperature protected from light for 30 minutes. Then 5 μL of EDTA stop solution (250 mM) was added to stop the reaction.

[1] = system: human colon cancer LoVo cell; assay: MTT proliferation assay, LoVo; assay type: cell-based; settings: Homo sapiens, LoVo, 96 h, read-out: IC50 (nM), proliferation of LoVo cell
Method: (§1) The cells were seeded into 96-well cell culture plate with a density of 2000/4000 cells per well and incubated overnight in a 5% CO2 incubator at 37° C. […] 5 μL diluent of each concentration was added to 120 μL of medium (25 times diluted) and mixed by shaking. The overnight cell plates were taken and the culture medium was removed, 195 μL of fresh medium was added to each well, and 5 μL of diluted medium containing the corresponding concentration of the test compound was added respectively (the final concentration of DMSO is 1%), and the culture plate was then placed in a 5% CO2 incubator at 37° C. for 4 days. After removing the original solution, 100 SEL of fresh serum-free DMEM medium containing MTT (0.5 mg/mL) was added to each well, the culture was continued. […] Cell viability (%)=(ODcompound−ODbackground)/ODDMSO−ODbackground)×100. GraphPad Prism 6.0 was used to analyze the data. The inhibitory activity of compounds on cell proliferation was plotted based on cell viability and the logarithm of compound concentration. The IC5.0 value was fitted by a sigmoidal dose response curve equation Y=100/(1+10^(LogC-LogIC50)), wherein C was the concentration of compound.

[2] = Pharmacokinetics following single oral administration to mice; assay type: in vivo; settings: mouse, CD-1 (ICR) mice, gavage 10 mg/kg, 0.5% methylcellulose/water suspension, plasma
Method: The compound of the present invention was formulated into a 0.5% methylcellulose/water uniform suspension, and was administered to CD-1 (ICR) mice by gavage at 10 mg/kg. Plasma samples were collected at 8 time points of 0.250, 0.500, 1.00, 2.00, 4.00, 6.00, 8.00 and 24.0 hours post-dose. Concentrations of the compound were determined by LC-MS/MS method.

[3] = system: human lung cancer NCI-H460 cell; assay: MTT proliferation assay, NCI-H460; assay type: cell-based; settings: NCI-H460, 96 h, read-out: IC50 (nM), proliferation of NCI-H460 cell
Method: The cells were digested by trypsinase and centrifuged at 800 rpm for 5 minutes, the supernatant was discarded, and the residual was resuspended with fresh medium […]) and counted.
as §1, with “μL” for “SEL”, “(%)=(ODcompound−ODbackground)/(ODDMSO−ODbackground)×100.” for “(%)=(ODcompound−ODbackground)/ODDMSO−ODbackground)×100.”, “IC50” for “IC5.0”, “[…],” for “Y=100/(1+10^(LogC-LogIC50)),”

T1 sequence (Q13535 whole entry): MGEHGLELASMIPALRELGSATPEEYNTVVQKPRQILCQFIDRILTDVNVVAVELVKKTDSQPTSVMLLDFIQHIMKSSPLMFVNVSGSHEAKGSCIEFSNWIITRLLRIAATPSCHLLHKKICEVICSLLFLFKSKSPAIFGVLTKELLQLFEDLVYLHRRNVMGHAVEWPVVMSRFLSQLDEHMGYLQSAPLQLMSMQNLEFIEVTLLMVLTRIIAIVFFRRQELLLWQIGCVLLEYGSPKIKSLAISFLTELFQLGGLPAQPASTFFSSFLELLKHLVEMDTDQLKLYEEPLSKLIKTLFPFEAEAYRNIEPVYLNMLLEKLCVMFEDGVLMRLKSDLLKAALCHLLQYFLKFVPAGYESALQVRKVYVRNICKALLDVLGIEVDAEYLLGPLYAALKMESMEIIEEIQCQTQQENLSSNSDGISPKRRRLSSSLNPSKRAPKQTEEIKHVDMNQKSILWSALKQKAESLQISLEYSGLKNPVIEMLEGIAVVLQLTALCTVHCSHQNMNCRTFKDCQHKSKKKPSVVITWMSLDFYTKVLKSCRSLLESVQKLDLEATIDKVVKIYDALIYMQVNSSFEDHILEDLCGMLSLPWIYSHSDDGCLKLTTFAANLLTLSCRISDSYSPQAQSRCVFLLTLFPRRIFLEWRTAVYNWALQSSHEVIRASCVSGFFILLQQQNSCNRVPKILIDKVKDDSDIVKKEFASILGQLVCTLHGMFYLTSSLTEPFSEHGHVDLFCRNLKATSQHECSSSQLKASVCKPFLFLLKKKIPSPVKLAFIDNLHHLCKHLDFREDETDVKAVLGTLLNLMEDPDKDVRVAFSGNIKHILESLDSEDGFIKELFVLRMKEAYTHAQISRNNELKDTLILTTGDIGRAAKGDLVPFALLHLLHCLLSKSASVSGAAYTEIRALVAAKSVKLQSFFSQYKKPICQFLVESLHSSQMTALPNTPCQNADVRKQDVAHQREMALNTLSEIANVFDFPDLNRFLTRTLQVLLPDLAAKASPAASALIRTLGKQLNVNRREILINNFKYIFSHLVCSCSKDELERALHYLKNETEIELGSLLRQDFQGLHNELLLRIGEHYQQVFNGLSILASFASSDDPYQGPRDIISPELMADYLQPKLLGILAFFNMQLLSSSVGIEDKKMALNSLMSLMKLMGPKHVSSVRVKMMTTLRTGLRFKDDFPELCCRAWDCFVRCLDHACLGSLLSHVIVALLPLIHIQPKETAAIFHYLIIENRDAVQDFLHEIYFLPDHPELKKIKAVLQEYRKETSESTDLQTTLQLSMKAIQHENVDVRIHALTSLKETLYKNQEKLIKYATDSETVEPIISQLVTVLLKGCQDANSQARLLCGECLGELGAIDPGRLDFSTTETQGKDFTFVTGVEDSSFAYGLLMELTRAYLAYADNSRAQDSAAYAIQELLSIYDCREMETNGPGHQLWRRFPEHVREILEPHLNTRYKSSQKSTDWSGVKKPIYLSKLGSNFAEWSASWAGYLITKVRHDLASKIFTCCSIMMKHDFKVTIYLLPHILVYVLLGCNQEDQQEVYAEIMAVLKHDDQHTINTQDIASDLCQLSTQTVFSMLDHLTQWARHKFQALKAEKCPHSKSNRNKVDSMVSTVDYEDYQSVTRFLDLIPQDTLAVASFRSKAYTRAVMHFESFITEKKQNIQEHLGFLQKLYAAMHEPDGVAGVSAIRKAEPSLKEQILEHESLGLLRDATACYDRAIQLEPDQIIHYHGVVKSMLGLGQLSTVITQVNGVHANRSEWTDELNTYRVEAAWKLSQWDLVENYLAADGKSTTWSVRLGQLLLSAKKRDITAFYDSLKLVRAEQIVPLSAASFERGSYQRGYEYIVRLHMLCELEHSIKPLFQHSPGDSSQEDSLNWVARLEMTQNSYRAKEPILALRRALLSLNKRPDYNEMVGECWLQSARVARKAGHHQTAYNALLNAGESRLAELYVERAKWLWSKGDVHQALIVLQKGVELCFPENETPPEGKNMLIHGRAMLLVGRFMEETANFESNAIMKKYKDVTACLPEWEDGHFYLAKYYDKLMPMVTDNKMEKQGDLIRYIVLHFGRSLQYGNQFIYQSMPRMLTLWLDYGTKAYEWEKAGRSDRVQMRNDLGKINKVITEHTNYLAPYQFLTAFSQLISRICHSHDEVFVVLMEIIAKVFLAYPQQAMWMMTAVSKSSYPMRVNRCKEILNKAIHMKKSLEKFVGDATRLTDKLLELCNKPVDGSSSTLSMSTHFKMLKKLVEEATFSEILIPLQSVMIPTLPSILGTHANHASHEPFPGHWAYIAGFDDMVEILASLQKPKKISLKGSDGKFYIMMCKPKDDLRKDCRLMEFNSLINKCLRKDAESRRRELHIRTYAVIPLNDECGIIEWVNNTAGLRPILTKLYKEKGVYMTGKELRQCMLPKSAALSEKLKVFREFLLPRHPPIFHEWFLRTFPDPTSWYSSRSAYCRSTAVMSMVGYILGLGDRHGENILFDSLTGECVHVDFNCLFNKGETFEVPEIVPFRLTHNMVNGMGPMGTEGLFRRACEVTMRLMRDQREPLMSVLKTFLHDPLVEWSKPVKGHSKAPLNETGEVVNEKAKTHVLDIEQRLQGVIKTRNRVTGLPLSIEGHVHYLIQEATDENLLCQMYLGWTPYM
T1 sequence (Q8WXE1 whole entry partner): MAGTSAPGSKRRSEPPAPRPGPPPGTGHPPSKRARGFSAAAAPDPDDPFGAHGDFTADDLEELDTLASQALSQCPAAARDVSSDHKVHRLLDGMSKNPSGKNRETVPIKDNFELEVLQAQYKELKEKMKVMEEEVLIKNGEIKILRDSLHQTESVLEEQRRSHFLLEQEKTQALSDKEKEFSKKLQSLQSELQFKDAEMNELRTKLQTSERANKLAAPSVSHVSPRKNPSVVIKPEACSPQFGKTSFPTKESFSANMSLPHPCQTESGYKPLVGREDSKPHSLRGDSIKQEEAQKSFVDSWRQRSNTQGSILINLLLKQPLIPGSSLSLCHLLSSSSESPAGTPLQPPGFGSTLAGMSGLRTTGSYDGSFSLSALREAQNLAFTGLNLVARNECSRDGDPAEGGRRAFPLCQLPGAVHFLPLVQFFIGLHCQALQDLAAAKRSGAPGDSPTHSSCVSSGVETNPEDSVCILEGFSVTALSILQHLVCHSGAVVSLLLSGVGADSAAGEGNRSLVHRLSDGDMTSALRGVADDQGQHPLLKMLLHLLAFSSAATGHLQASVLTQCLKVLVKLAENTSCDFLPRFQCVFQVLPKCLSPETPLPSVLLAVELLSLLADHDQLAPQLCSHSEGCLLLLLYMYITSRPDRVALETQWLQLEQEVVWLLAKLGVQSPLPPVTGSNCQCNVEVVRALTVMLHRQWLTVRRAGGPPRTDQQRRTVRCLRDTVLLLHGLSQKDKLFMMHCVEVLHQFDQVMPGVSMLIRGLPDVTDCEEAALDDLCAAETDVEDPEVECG

| SMILES | IC50 (ATR/ATRIP enzyme) [nM] | IC50 ([1]; MTT, 4 days) [nM] | AUC(0-inf) [2] [ng·h/mL] | AUC(0-t) [2] [ng·h/mL] | Cmax [2] [ng/mL] | half-life [2] [h] | IC50 ([3]; MTT, 4 days) [nM] | IC50 [1] [nM] | IC50 [3] [nM] |
| --- | --- | --- | --- | --- | --- | --- | --- | --- | --- |
| C=Cc1nc(-c2ccn[nH]2)n2nc(N3CCOC[C@H]3C)cc(-c3ccnn3C)c12 [Example 23, (R)-3-methyl-4-(4-(1-methyl-1H-pyrazol-5-yl)-7-(1H-pyrazol-5-yl)-5-vinylimidazo[1,5-b]pyridazin-2-yl)morpholine] | 2 | 39.1 | 24100 | 22400 | 6610 | 1.66 | 32 |  |  |
| CCc1nc(-c2ccn[nH]2)n2nc(N3CCOC[C@H]3C)cc(-c3ccnn3C)c12 [Example 24, (R)-4-(5-ethyl-4-(1-methyl-1H-pyrazol-5-yl)-7-(1H-pyrazol-5-yl)imidazo[1,5-b]pyridazin-2-yl)-3-methylmorpholine] | 2 |  | 171000 | 162000 | 15400 | 5.4 |  | 38.8 | 28 |
| C=C(C)c1nc(-c2ccn[nH]2)n2nc(N3CCOC[C@H]3C)cc(-c3ccnn3C)c12 [Example 25, (R)-3-Methyl-4-(4-(1-Methyl-1H-pyrazol-5-yl)-5-(prop-1-en-2-yl)-7-(1H-pyrazol-5-yl)imidazo[1,5-b]pyridazin-2-yl)morpholine] | 1 | 10.7 | 70200 | 70000 | 16900 | 2.56 | 8.64 |  |  |

Further lines, results first:

| IC50 (ATR/ATRIP enzyme) [nM] | IC50 ([1]; MTT, 4 days) [nM] | AUC(0-inf) [2] [ng·h/mL] | AUC(0-t) [2] [ng·h/mL] | Cmax [2] [ng/mL] | half-life [2] [h] | IC50 ([3]; MTT, 4 days) [nM] | IC50 [1] [nM] | IC50 [3] [nM] | SMILES |
| --- | --- | --- | --- | --- | --- | --- | --- | --- | --- |
| 2 | 24.1 | 63000 | 59000 | 7670 | 5.88 | 17.1 |  |  | C[C@@H]1COCCN1c1cc(-c2ccnn2C)c2c(Br)nc(-c3ccn[nH]3)n2n1 [Example 22, (R)-4-(5-bromo-4-(1-methyl-1H-pyrazol-5-yl)-7-(1H-pyrazol-5-yl)imidazo[1,5-b]pyridazin-2-yl)-3-methylmorpholine] |
| 1 | 27.4 | 49000 | 46400 | 7180 | 5.82 | 22.8 |  |  | CC(C)c1nc(-c2ccn[nH]2)n2nc(N3CCOC[C@H]3C)cc(-c3ccnn3C)c12 [Example 26, (R)-4-(5-isopropyl-4-(1-methyl-1H-pyrazol-5-yl)-7-(1H-pyrazol-5-yl)imidazo[1,5-b]pyridazin-2-yl)-3-methylmorpholine] |
